Values after ≈ are worked out from the molar mass of the structure shown.

Here are results for ten molecules from US20010000177A1, “Novel class of thiomorpholino substituted thiazoles” (priority 1999, published 2001).

Common to all, as to format: cell-based
For experiment [1], the system named is Candida and Cryptococcus strains (organism not given). Description: Broth microdilution antifungal activity, Table II third MIC/MCC column pair. To be noted: for MIC = Minimum inhibitory concentration (50% Inhibition): 48 hrs, 35° C., YNB broth pH 7.0; for MCC = Minimum cytolytic concentration: subculture on SDA plate. The protocol: (§1) Organisms: Three strains of Candida (Candida parpsilosis, Candida tropicalis, Candida albicans-ATCC 36082) as well as Cryptococcus neoformans were used for the initial testing. Active compounds were then tested against fluconazole resistant Candida albicans, Candida krusei, Torulopsis glabrata, and Cryptococcus neoformans along with Sporothrix shenkii and Aspergillus flavus in the secondary round of testing. All clinical strains used in this study were blood culture isolates from the Clinical Microbiology Laboratory of Harbor-UCLA Medical Center, Torrance, Calif. The organisms were maintained on Sabourahd Dextrose Agar slants at 4° C. For experimentation, singlet suspensions of each organism were prepared by growing the yeast overnight at 27° C. on a rotating drum in yeast-nitrogen base broth (YNB) with amino acids (Difco, Detroit, Mich.), pH 7.0 with 0.05M morpholinepropanesulfonic acid (MOPS). The suspension was then centrifuged and washed twice with 0.85% NaCl. This was followed by sonication of the washed cell suspension for 4s (Branson Sonifier, model 350, Danbury, Conn.). The singlet blastospores were counted in a hemocytometer and adjusted to the desired concentration in 0.85% NaCl.
(§2) Antifungal Activity: The antifungal activity of the compounds and Fluconazole against the Candida and Cryptococcus strains were determined using a modification of a broth microdilution technique. Test compounds were diluted in DMSO to a 1.0 mg/ml ratio then diluted to 64 μg/ml in YNB broth, pH 7.0 with MOPS (Fluconazole was used as the control). This was to provide a working solution of each compound. Using a 96-well plate, wells 1 and 3 through 12 were prepared with YNB broth, […] dilutions of the compound solution were made in wells 2 through 11 (concentration ranges were 64 to 0.125 μg/ml). Well one served as a sterility control and blank for the spectrophotometric assays. Well twelve served as a growth control. The microtiter plates were inoculated with 10 ul in each of well 2 through 11 (final inoculum size was 10^4 organisms/ml). Inoculated plates were incubated for 48 hrs., at 35° C. The MIC values were determined spectrophotometrically by measuring the absorbance at 420 nm (Automatic Microplate Reader, DuPont Instruments, Wilmington, Del.) after agitation of the plates for 2 min with a vortex-mixer (Vorte-Genie 2 Mixer, Scientific Industries, Inc., Bolemia, N.Y.). […] With the turbidity assay this was defined as the lowest drug concentration at which turbidity in the well was <50% of the control (IC50) Minimal Cytolytic Concentrations (MCC) were determined by subculturing all wells from the 96-well plate onto a Sabourahd Dextrose Agar (SDA) plate and incubated for 1 to 2 days at 35° C. and the viability was checked.

Experiment [2] shares this test system. As to the kind of experiment: Broth microdilution antifungal activity, Table II first MIC/MCC column pair. As to conditions: first column pair of Table II; for MIC = Minimum inhibitory concentration (50% Inhibition): 48 hrs, 35° C., YNB broth pH 7.0; for MCC = Minimum cytolytic concentration: subculture on SDA plate. The protocol:
as §1, with “Active compounds were then tested against fluconazole resistant Candida albicans, Candida krusei, Torulopsis glabrata, and Cryptococcus neoformans along with Sporothrix shenkii and Aspergillus flavus in the secondary round of testing.” left out
as §2

The test system is the same in experiment [3]. As to the kind of experiment: Broth microdilution antifungal activity, Table II second MIC/MCC column pair. As to conditions: second column pair of Table II; for MIC = Minimum inhibitory concentration (50% Inhibition): 48 hrs, 35° C., YNB broth pH 7.0; for MCC = Minimum cytolytic concentration: subculture on SDA plate. As to the method:
as §1, §2

Experiment [4] shares this test system. Description: Broth microdilution antifungal activity, Table II fourth MIC/MCC column pair. To be noted: fourth column pair of Table II; for MIC = Minimum inhibitory concentration (50% Inhibition): 48 hrs, 35° C., YNB broth pH 7.0; for MCC = Minimum cytolytic concentration: subculture on SDA plate. As to the method:
as §1, with “Active compounds were then tested against fluconazole resistant Candida albicans, Candida krusei, Torulopsis glabrata, and Cryptococcus neoformans along with Sporothrix shenkii and Aspergillus flavus in the secondary round of testing.” left out
as §2

In the case of `C=CCNCc1ccc(-c2csc(-c3ccc(F)cc3)n2)cc1` [Example 1n, 2-(4′-fluorophenyl)-4-[4″-(N-allylaminomethyl)phenyl]thiazole], the “MIC = Minimum inhibitory concentration (50% Inhibition)” value amounted to 8 µg/mL (≈ 24.7 µM) in experiment [1], 8 µg/mL (≈ 24.7 µM) in experiment [2], 4 µg/mL (≈ 12.3 µM) in experiment [3] and 8 µg/mL (≈ 24.7 µM) in experiment [4]. The “MCC = Minimum cytolytic concentration” value is 16 µg/mL in experiment [1], 16 µg/mL in experiment [2], 8 µg/mL in experiment [3] and 8 µg/mL in experiment [4].

For `CCCN(C)Cc1ccc(-c2csc(-c3ccc([N+](=O)[O-])cc3)n2)cc1` [Example 1o, 2-(4′-nitrophenyl)-4-[4″-(N-methyl-N-propylaminomethyl)phenyl]thiazole], the “MIC = Minimum inhibitory concentration (50% Inhibition)” value in experiment [1] was 2 µg/mL (≈ 5.44 µM); in experiment [2] it was 1 µg/mL (≈ 2.72 µM); in experiment [3], 1 µg/mL (≈ 2.72 µM); in experiment [4], 0.125 µg/mL (≈ 0.34 µM). Besides, the “MCC = Minimum cytolytic concentration” value came to 32 µg/mL in experiment [1], 4 µg/mL in experiment [2], 4 µg/mL in experiment [3] and 2 µg/mL in experiment [4].

As to `CN(C)CCSCc1ccc(-c2csc(-c3ccc(Cl)cc3)n2)cc1` [Example 1rr, 2-(4′-chlorophenyl)-4-[4″-[(2-dimethylaminoethyl-thio)methyl]phenyl]thiazole], the “MIC = Minimum inhibitory concentration (50% Inhibition)” value in experiment [1], in experiment [2], in experiment [3] and in experiment [4] was 4 µg/mL (≈ 10.3 µM) each time. Further, the “MCC = Minimum cytolytic concentration” value in experiment [1], in experiment [2], in experiment [3] and in experiment [4] was 8 µg/mL throughout.

Regarding `CNCCN(C)Cc1ccc(-c2csc(-c3ccc(Cl)cc3)n2)cc1` [Example 1tt, 2-(4′-chlorophenyl)-4-[4″-(N-methyl-N-(2-N-methylaminoethyl)-amino-methyl)phenyl]thiazole], the “MIC = Minimum inhibitory concentration (50% Inhibition)” value in experiment [1] amounted to 2 µg/mL (≈ 5.38 µM); in experiment [2], 4 µg/mL (≈ 10.8 µM); in experiment [3], 4 µg/mL (≈ 10.8 µM); in experiment [4], 2 µg/mL (≈ 5.38 µM). For the same molecule, the “MCC = Minimum cytolytic concentration” value came to 16 µg/mL in experiment [1], 16 µg/mL in experiment [2], 16 µg/mL in experiment [3] and 4 µg/mL in experiment [4].

As for `CN(C)CCN(C)Cc1ccc(-c2csc(-c3ccc(Cl)cc3)n2)cc1` [Example 1u, 2-(4′-chlorophenyl)-4-[4″-(N-methyl-N-(2-dimethylaminoethyl)aminomethyl)-phenyl]thiazole], the “MIC = Minimum inhibitory concentration (50% Inhibition)” value came to 4 µg/mL (≈ 10.4 µM) in experiment [1], 8 µg/mL (≈ 20.7 µM) in experiment [2], 4 µg/mL (≈ 10.4 µM) in experiment [3] and 4 µg/mL (≈ 10.4 µM) in experiment [4]. The “MCC = Minimum cytolytic concentration” value in experiment [1] is 4 µg/mL; in experiment [2], 8 µg/mL; in experiment [3] it was 4 µg/mL; in experiment [4], 4 µg/mL.

As to `CN(C)Cc1ccc(-c2csc(-c3ccc([N+](=O)[O-])cc3)n2)cc1` [Example 1x, 2-(4′-nitrophenyl)-4-[4″-(dimethylaminomethyl)phenyl]thiazole], the “MIC = Minimum inhibitory concentration (50% Inhibition)” value in experiment [1] was 1 µg/mL (≈ 2.95 µM); in experiment [2], 1 µg/mL (≈ 2.95 µM); in experiment [3], 1 µg/mL (≈ 2.95 µM); in experiment [4], 2 µg/mL (≈ 5.89 µM). The “MCC = Minimum cytolytic concentration” value in experiment [1], in experiment [2], in experiment [3] and in experiment [4] was 2 µg/mL throughout.

Take `CCCN(C)Cc1ccc(-c2csc(-c3ccc(C#N)cc3)n2)cc1` [Example 6e, 2-(4′-cyanophenyl)-4-[4″-(N-methyl-N-propylaminomethyl)phenyl]-thiazole]: the “MIC = Minimum inhibitory concentration (50% Inhibition)” value amounted to 2 µg/mL (≈ 5.76 µM) in experiment [1], 4 µg/mL (≈ 11.5 µM) in experiment [2], 2 µg/mL (≈ 5.76 µM) in experiment [3] and 0.5 µg/mL (≈ 1.44 µM) in experiment [4]. Also, the “MCC = Minimum cytolytic concentration” value in experiment [1] was 16 µg/mL; in experiment [2] it was 4 µg/mL; in experiment [3], 4 µg/mL; in experiment [4], 1 µg/mL.

For `CCCN(C)Cc1ccc(-c2csc(-c3ccc(C(F)(F)F)cc3F)n2)cc1` [Example 6f, 2-(2′-fluoro-4′-trifluoromethylphenyl)-4-[4″-(N-methyl-N-propylamino-methyl)phenyl]thiazole], the “MIC = Minimum inhibitory concentration (50% Inhibition)” value in experiment [1] was found to be 2 µg/mL (≈ 4.9 µM); in experiment [2], 8 µg/mL (≈ 19.6 µM); in experiment [3], 4 µg/mL (≈ 9.79 µM); in experiment [4], 4 µg/mL (≈ 9.79 µM). Further, the “MCC = Minimum cytolytic concentration” value in experiment [1] turned out to be 8 µg/mL; in experiment [2], 16 µg/mL; in experiment [3], 8 µg/mL; in experiment [4], 8 µg/mL.

Consider `CCCN(C)Cc1ccc(-c2csc(-c3ccc(I)cc3)n2)cc1` [Example 6g, 2-(4′-iodophenyl)-4-[4″-(N-methyl-N-propylaminomethyl)phenyl]-thiazole], for which the “MIC = Minimum inhibitory concentration (50% Inhibition)” value stood at 8 µg/mL (≈ 17.8 µM) in experiment [1], 8 µg/mL (≈ 17.8 µM) in experiment [2], 4 µg/mL (≈ 8.92 µM) in experiment [3] and 4 µg/mL (≈ 8.92 µM) in experiment [4]. For the same molecule, the “MCC = Minimum cytolytic concentration” value in experiment [1] stood at 4 µg/mL; in experiment [2] it was 4 µg/mL; in experiment [3] it was 2 µg/mL; in experiment [4], 4 µg/mL.

For `CCCN(C)Cc1ccc(-c2csc(-c3ccc(OC)c([N+](=O)[O-])c3)n2)cc1` [Example 6k, 2-(4′-methoxy-3′-nitrophenyl)-4-[4″-(N-methyl-N-propylamino-methyl)phenyl]thiazole], the “MIC = Minimum inhibitory concentration (50% Inhibition)” value in experiment [1] worked out at 1 µg/mL (≈ 2.52 µM); in experiment [2], 1 µg/mL (≈ 2.52 µM); in experiment [3], 0.5 µg/mL (≈ 1.26 µM); in experiment [4] it was 1 µg/mL (≈ 2.52 µM). The “MCC = Minimum cytolytic concentration” value in experiment [1] came to 2 µg/mL; in experiment [2] it was 2 µg/mL; in experiment [3], 2 µg/mL; in experiment [4], 1 µg/mL.
